According to patent US7704508B2, “Babesia subtilisin” (New York Blood Center, priority 2007, dated 2010):
Starred links: 1 amine or outer side, 2 acyl side, 3 side chain; linkers in the order of their positions; H or OH if unused. Non-standard residues stand in square brackets, D forms with d. Residues, ends and D or L forms follow the SMILES beside them. ξ: configuration not given here. *: point of attachment. Sta = CC(C)C[C@H](N)[C@@H](O)CC(=O)O; Isovaleryl = CC(C)CC(=O)*; ξF = NC(Cc1ccccc1)C(=O)O; CO = O=C([*:1])[*:2]

Columns and labels:
B. divergens [1] = experiment: Effect of protease inhibitors on B. divergens erythrocyte invasion (parasitemia by YOYO-1 flow cytometry, T10); type: cell-based; settings: for inhibition of invasion: 50 and 100 μM, relative to control; for inhibition at 50 µM / inhibition at 100 µM: Erythrocyte
Protocol: (§1) Parasitemia for B. divergens was assessed in human RBCs using a modification of the methods of Barkan et al. (Int. J. Parasitol. 30:649-53, 2000) and Jimenez-Diaz et al. (Cytometry A 67:27-36, 2005), both of which are incorporated by reference herein for all they contain regarding assessment of parasitemia. DNA content was measured after staining with YOYO-1 (a high affinity cell-impermeant dye that increases green fluorescence by 1000-fold when bound to dsDNA) observed infected erythrocytes compared with non-infected human erythrocytes for B. divergens.
(§2) To assess the effect of various protease inhibitors, parasitemia was assessed in 180 parasite samples taken at different time points (0 and after 10, 24, 48 and 72 h). In parallel with the evaluation of the parasitemia by FACS (fluorescence activated cell sorting), 60 random parasite samples were analyzed by light microscopy using Giemsa-stained thin blood smears, with 500-1000 RBCs being counted for each smear. […] Integration of the numbers of events represented in the right peak provides a direct estimate of the parasitemia, where one infected cell is one event.
(§3) Protease inhibitors were tested for their ability to inhibit the invasion and growth of B. divergens in vitro.
(§4) The effects of EGTA, a chelating agent capable of binding metal ions including Ca^2+, on the invasion and growth of B. divergens was tested. EGTA cannot permeate the biological membrane of cells so its effects are only on the chelation of extracellular ions. As many serine proteases require Ca^2+ for activity, EGTA also functions as a serine protease inhibitor.

B. divergens [2] = experiment: Effect of protease inhibitors on B. divergens growth in culture (parasitemia by YOYO-1 flow cytometry, T72); type: cell-based; settings: for inhibition of growth / decrease of parasitemia after 72 h: 50 and 100 μM, compared to control; for Growth T72 50 μM (inhibition) / Growth T72 100 μM (inhibition) / inhibition at 50 µM / inhibition at 100 µM: T72
Protocol: as §1, §2, §3, §4

BdSUB-1 = experiment: Effect of brefeldin A on BdSUB-1 processing during secretory transport (western blot); type: cell-based, B. divergens; settings: 40 μg/ml BFA in methanol, 1 hour, 37° C., western blot with PfSUB1m antibodies
Protocol: Monitoring the effect of brefeldin A. The effects of brefeldin A (BFA, Sigma) on BdSUB-1 processing during secretory transport was monitored using ^35S-radiolabeled B. divergens cultures. The drug was prepared as a stock solution in methanol at 1 mg ml^−1 and then added to parasite cultures to a final concentration of 40 μg ml^−1 BFA. Methanol was added to the control cultures and cells were cultured at 37° C. in a […], 5% nitrogen and 5% oxygen for 1 hour. Samples were washed in PBS, lysed in saponin buffer and analyzed by western blot using the anti-PfSUB1m antibodies.
BdSUB-1 undergoes post-translational processing during secretory transport. […] In order to examine whether BdSUB-1 undergoes intracellular post-translational processing steps within the parasite secretory pathway, brefeldin A (BFA) was employed, which blocks secretory transport of proteins from the endoplasmic reticulum (ER) to the Golgi apparatus. Western-blot analysis was performed on parasite lysates that were obtained from cultures grown in the presence or absence of BFA, using anti-PfSUB1m antibodies. […] Thus, BdSUB-1 is initially synthesized as a large precursor protein of ˜78 kDA and cleavage of the signal peptide results in the formation of p75, which is the largest detectable protein seen in the assays. This p75 is then processed to p55, which then gets converted to p48 in the Golgi. […]

## O=c1oc(Cl)c(Cl)c2ccccc12 [3,4 DCI]
B. divergens [1]; T10
  Invasion T10 50 μM (inhibition): 38.0 ± 2.0%
  Invasion T10 100 μM (inhibition): 43.0 ± 1.2%
B. divergens [1]
  inhibition of invasion: 40%
B. divergens [2]
  Growth T72 50 μM (inhibition): 70.7 ± 1.4%
  Growth T72 100 μM (inhibition): 76.0 ± 2.3%
  inhibition of growth / decrease of parasitemia after 72 h: 76%

## NCCc1ccc(S(=O)(=O)F)cc1 [ABSF, 4-(2-aminoethyl)benzenesulfonyl fluoride]
B. divergens [1]; T10
  Invasion T10 50 μM (inhibition): 3.3 ± 6.8%
  Invasion T10 100 μM (inhibition): 34.0 ± 9.0%
B. divergens [2]
  Growth T72 50 μM (inhibition): 8.8 ± 7.4%
  Growth T72 100 μM (inhibition): 28.0 ± 5.0%

## CC(C)[C@H](NC(=O)[C@H](CCCNC(=N)N)NC(=O)NC(Cc1ccccc1)C(=O)O)C(=O)N[C@H](C=O)CCCNC(=N)N (stereo partly drawn) [Antipain, (1-carboxy-2-phenylethyl)carbamoyl-L-arginyl-L-valylargininal] ({ξF-CO}-Arg-Val-Arg-aldehyde)
B. divergens [1]; T10
  inhibition at 50 µM: 33 ± 6.5%
  inhibition at 100 µM: 37.7 ± 14.1%
B. divergens [2]
  inhibition at 50 µM: 15 ± 8.4%
  inhibition at 100 µM: 16 ± 8.5%

## C[C@H]1CCC/C=C/[C@@H]2C[C@H](O)C[C@H]2[C@H](O)/C=C/C(=O)O1 [BFA, brefeldin A]
BdSUB-1
  BdSUB-1 processing / secretory transport: blocked the secretory transport of BdSUB-1 from the ER to the Golgi apparatus

## O=C(O)CN(CCOCCOCCN(CC(=O)O)CC(=O)O)CC(=O)O [EGTA, ethylene glycol tetraacetic acid]
B. divergens [1]; 1 mM, T10
  Invasion T10 1 mM (inhibition): 48.0 ± 3.1%
B. divergens [1]; 3 mM, T10
  Invasion T10 3 mM (inhibition): 52.0 ± 2.6%
B. divergens [1]; Ca2+ added in the same concentration as EGTA
  reversal of inhibition of invasion and growth by Ca2+: completely reversed
B. divergens [1]; EGTA 1, 2 and 3 mM
  percentage of inhibition on invasion: 50%
B. divergens [2]
  Growth T72 1 mM (inhibition): 82.0 ± 0.4%
  Growth T72 3 mM (inhibition): 83.0 ± 0.5%
  growth of the parasite after 72 h, lower than the control: 83%

## O=S(=O)(F)Cc1ccccc1 [PMSF, phenylmethylsulfonyl fluoride]
B. divergens [1]; T10
  Invasion T10 50 μM (inhibition): 28.0 ± 8.9%
  Invasion T10 100 μM (inhibition): 35.0 ± 18.0%
B. divergens [2]
  Growth T72 50 μM (inhibition): 45.0 ± 5.2%
  Growth T72 100 μM (inhibition): 46.7 ± 3.3%

## CC(C)CC(=O)N[C@H](C(=O)N[C@H](C(=O)N[C@@H](CC(C)C)[C@@H](O)CC(=O)N[C@@H](C)C(=O)N[C@@H](CC(C)C)[C@@H](O)CC(=O)O)C(C)C)C(C)C [Pepstatin, pepstatin] (Isovaleryl-VV[Sta]A[Sta]-OH)
B. divergens [1]; T10
  inhibition at 50 µM: 17 ± 6.4%
  inhibition at 100 µM: 2 ± 0.8%
B. divergens [2]
  inhibition at 50 µM: 9.1 ± 3.1%
  inhibition at 100 µM: 16 ± 9.2%

## Cc1ccc(S(=O)(=O)N[C@@H](CCCCN)C(=O)CCl)cc1 [TLCK, N-α-tosyl-L-lysine chloromethyl ketone]
B. divergens [1]; T10
  Invasion T10 50 μM (inhibition): 64.0 ± 3.1%
  Invasion T10 100 μM (inhibition): 60.0 ± 2.0%
B. divergens [1]
  inhibition of invasion: ~60%
B. divergens [2]
  Growth T72 50 μM (inhibition): 92.1 ± 3.0%
  Growth T72 100 μM (inhibition): 94.1 ± 0.9%
  inhibition of growth / decrease of parasitemia after 72 h: approximately 90%
B. divergens [2]; microscopy of treated cultures
  morphology of the parasites during invasion and growth inhibition assay: no alteration in the morphology of the parasites
